Source: patent US8362000B2, “Azetidinyl diamides as monoacylglycerol lipase inhibitors” (Janssen Pharmaceutica NV, priority 2009, dated 2013)
Where a chain is given by its changes, count along the chain named.

These molecules were tested against T1, mutant MGL (Homo sapiens, UniProt Q99685, L169S/L176S) (assay: MGL ThermoFluor assay - mutant). Conditions: ThermoFluor concentration-response, read-out: MGL mutant ThermoFluor Kd.
T1 sequence (Q99685 1-303 L169S/L176S): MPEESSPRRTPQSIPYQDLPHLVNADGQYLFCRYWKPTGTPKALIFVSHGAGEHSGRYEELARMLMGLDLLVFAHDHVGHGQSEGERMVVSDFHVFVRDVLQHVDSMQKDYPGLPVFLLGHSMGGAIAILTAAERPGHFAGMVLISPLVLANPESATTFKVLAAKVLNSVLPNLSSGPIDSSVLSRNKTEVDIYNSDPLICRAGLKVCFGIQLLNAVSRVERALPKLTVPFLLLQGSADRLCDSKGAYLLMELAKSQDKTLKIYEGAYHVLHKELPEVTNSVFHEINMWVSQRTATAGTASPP
Assay type: binding

Kd	Compound
178 nM	O=C(c1ccc(Cl)nc1)c1c[nH]c2cc(C(=O)N3CC(N4CCN(C(=O)c5nccs5)CC4)C3)ccc12 [Cpd 949]
500 nM	O=C(c1ccccc1)N1CCN(C2CN(C(=O)c3ccc(SCc4ccc(Cl)cc4)cc3)C2)CC1 [Cpd 418]
5440 nM	O=C(c1cscn1)N1CCN(C2CN(C(=O)[C@@H]3C[C@H]3c3ccc(SC(F)(F)F)cc3)C2)CC1 (racemic) [Cpd 645, 1-(1,3-Thiazol-4-ylcarbonyl)-4-(1-{[(1RS,2RS)-2-{4-[(trifluoromethyl)sulfanyl]phenyl}cyclopropyl]carbonyl}azetidin-3-yl)piperazine]
250 nM	Cc1ccc(C(=O)N2CCN(C3CN(C(=O)c4ccc(-c5ccccc5)cc4)C3)CC2)s1 [Cpd 14, 1-[1-(Biphenyl-4-ylcarbonyl)azetidin-3-yl]-4-[(5-methylthiophen-2-yl)carbonyl]piperazine]
2330 nM	O=C(c1ccccc1)N1CCN(C2CN(C(=O)c3ccc(Oc4ccc(Br)cn4)cc3)C2)CC1 [Cpd 532]

Same assay, conditions: ThermoFluor thermal stability binding assay, read-out: MGL mutant ThermoFluor Kd

Kd	Compound
241 nM	O=C(c1ccc(-n2nccc2-c2ccc(F)cc2)cc1)N1CC(N2CCN(C(=O)c3nccs3)CC2)C1 [Cpd 1412]
> 31000 nM	O=C(c1cscn1)N1CCN(C2CN(C(=O)c3cc4cc(Cl)ccc4o3)C2)CC1 [Cpd 1444]
500 nM	O=C(c1ccc2c(c1)CCN2)N1CC(N2CCN(C(=O)c3nccs3)CC2)C1 [Cpd 829, 5-({3-[4-(1,3-Thiazol-2-ylcarbonyl)piperazin-1-yl]azetidin-1-yl}carbonyl)-2,3-dihydro-1H-indole]
72 nM	O=C(c1ccc2nc(C(F)(F)F)sc2c1)N1CC(N2CCN(C(=O)c3nccs3)CC2)C1 [Cpd 718]

Same assay, conditions: compound concentration measured by qNMR, read-out: MGL mutant ThermoFluor qKd (using qNMR conc.)

Kd	Compound
15 nM	O=C(c1nccs1)N1CCN(C2CN(C(=O)c3cc4ccn(-c5ccc(F)cc5)c4cc3Cl)C2)CC1 [Cpd 1416]
18 nM	O=C(c1ccc2nc(N3CCC(F)(F)CC3)sc2c1)N1CC(N2CCN(C(=O)c3nccs3)CC2)C1 [Cpd 671]
2490 nM	O=C(c1ccc(Sc2cccc(C(F)(F)F)c2)cc1)N1CC(N2CCN(C(=O)C(F)(F)F)CC2)C1 [Cpd 790]

The molecules below were run against T2, purified wild type MGL (wt-MGLL 6H-11-313) (Homo sapiens, UniProt Q99685) (assay: not given). Conditions: not given.
T2 sequence (Q99685 1-303): T1 sequence (Q99685 1-303 L169S/L176S) with S169L, S176L

IC50	Compound
163 nM	O=C(c1ccc(Cl)nc1)c1c[nH]c2cc(C(=O)N3CC(N4CCN(C(=O)c5nccs5)CC4)C3)ccc12 [Cpd 949]
39 nM	O=C(c1nccs1)N1CCN(C2CN(C(=O)c3cc4ccn(-c5ccc(F)cc5)c4cc3Cl)C2)CC1 [Cpd 1416]
87 nM	O=C(c1ccc(-n2nccc2-c2ccc(F)cc2)cc1)N1CC(N2CCN(C(=O)c3nccs3)CC2)C1 [Cpd 1412]
6450 nM	COc1cccc2c(C)c(C(=O)N3CCN(C4CN(C(=O)c5nccs5)C4)CC3)[nH]c12 [Cpd 846]
16 nM	O=C(c1ccc2nc(N3CCC(F)(F)CC3)sc2c1)N1CC(N2CCN(C(=O)c3nccs3)CC2)C1 [Cpd 671]
> 16700 nM	O=C(c1cscn1)N1CCN(C2CN(C(=O)c3cc4cc(Cl)ccc4o3)C2)CC1 [Cpd 1444]
3900 nM	O=C(c1ccc2c(c1)CCN2)N1CC(N2CCN(C(=O)c3nccs3)CC2)C1 [Cpd 829, 5-({3-[4-(1,3-Thiazol-2-ylcarbonyl)piperazin-1-yl]azetidin-1-yl}carbonyl)-2,3-dihydro-1H-indole]
148 nM	O=C(c1ccc2nc(C(F)(F)F)sc2c1)N1CC(N2CCN(C(=O)c3nccs3)CC2)C1 [Cpd 718]
1420 nM	O=C(c1ccc(Sc2cccc(C(F)(F)F)c2)cc1)N1CC(N2CCN(C(=O)C(F)(F)F)CC2)C1 [Cpd 790]
1720 nM	O=C(c1ccc2nc(-c3ccccc3)oc2c1)N1CCN(C2CN(C(=O)c3cscn3)C2)CC1 [Cpd 1275]
12 nM	Cn1cc(-c2cccc(C(F)(F)F)c2)c2ccc(C(=O)N3CC(N4CCN(C(=O)c5nccs5)CC4)C3)cc21 [Cpd 1100]
106 nM	O=C(c1ccc(Oc2ccccc2Cl)nc1)N1CC(N2CCN(C(=O)c3nccs3)CC2)C1 [Cpd 708]
13300 nM	Cc1c(C(=O)N2CC(N3CCN(C(=O)c4cscn4)CC3)C2)oc2c(F)cccc12 [Cpd 871]
< 5 nM	O=C(c1ccc2c(c1)CCN(Cc1cccc(C(F)(F)F)c1)C2)N1CC(N2CCN(C(=O)c3nccs3)CC2)C1 [Cpd 879]
105 nM	Cc1cn(-c2ccc(F)cc2)c2ccc(C(=O)N3CC(N4CCN(C(=O)c5ccccc5)CC4)C3)cc12 [Cpd 584]
231 nM	O=C(c1nccs1)N1CCN(C2CN(C(=O)c3nc4cc(Cl)ccc4s3)C2)CC1 [Cpd 728]
> 16700 nM	Cc1nc2cc(C(=O)N3CC(N4CCN(C(=O)c5cscn5)CC4)C3)ccc2n1C1CCC(F)(F)CC1 [Cpd 1506]
< 5 nM	Cn1cc(-c2ccc(F)cc2)c2ccc(C(=O)N3CC(N4CCN(C(=O)c5nccs5)CC4)C3)cc21 [Cpd 1318, 3-(4-Fluorophenyl)-1-methyl-6-({3-[4-(1,3-thiazol-2-ylcarbonyl)piperazin-1-yl]azetidin-1-yl}carbonyl)-1H-indole]
173 nM	O=C(c1ccc(-c2ccccc2)cc1)N1CC(N2CCN(C(=O)C3CC3)CC2)C1 [Cpd 303]

IC50	Compound
> 16700 nM	Cc1c(-c2ccccc2)oc2c(C(=O)N3CCN(C4CN(C(=O)c5ccccc5)C4)CC3c3ccccc3)cccc2c1=O (centres unmarked) [Cpd 1489]
107 nM	Cn1cc(-c2ccccc2)c2ccc(C(=O)N3CC(N4CCN(C(=O)c5ccccc5)CC4)C3)cc21 [Cpd 585]
1610 nM	O=C(c1ccc2[nH]c(Cc3ccccc3)nc2c1)N1CC(N2CCN(C(=O)c3cscn3)CC2)C1 [Cpd 1003]
76.9 nM	O=C(c1cccc(-c2ccc(C(F)(F)F)cc2)c1)N1CC(N2CCN(C(=O)c3nccs3)CC2)C1 [Cpd 149]
636 nM	O=C(c1nccs1)N1CC(N2CCN(C(=O)c3nc4cc(Cl)ccc4s3)CC2)C1 [Cpd 764]
> 16700 nM	O=C(c1ccc(S(=O)(=O)c2cccc(C(F)(F)F)c2)cc1)N1CC(N2CCN(C(=O)C(F)(F)F)CC2)C1 [Cpd 1493]
7 nM	O=C(c1ccc(Oc2cc(C(F)(F)F)ccn2)cc1)N1CC(N2CCN(C(=O)c3nccs3)CC2)C1 [Cpd 652]
2860 nM	O=C(c1ccc(S(=O)(=O)c2ccccc2)cc1)N1CC(N2CCN(C(=O)c3cscn3)CC2)C1 [Cpd 822]
1400 nM	O=C(c1ccc2nc(Cc3ccccc3)[nH]c2c1)N1CCN(C2CN(C(=O)c3nccs3)C2)CC1 [Cpd 1001]
> 16700 nM	Cc1c(-c2ccccc2)oc2c(C(=O)N3CCN(C4CN(C(=O)c5cscn5)C4)CC3c3ccccc3)cccc2c1=O (centres unmarked) [Cpd 1436]
838 nM	Cc1nc2cc(C(=O)N3CC(N4CCN(C(=O)c5ccccc5)CC4)C3)ccc2n1-c1ccccc1 [Cpd 635]
2700 nM	O=C(c1ccc2[nH]c3c(c2c1)CCCC3)N1CC(N2CCN(C(=O)c3cscn3)CC2)C1 [Cpd 817]
1040 nM	O=C(c1nccs1)N1CCN(C2CN(C(=O)c3ccccc3Nc3ccccc3)C2)CC1 [Cpd 781]
3310 nM	O=C(c1nccs1)N1CCN(C2CN(C(=O)c3cnn(-c4ccccc4)c3-c3ccccc3)C2)CC1 [Cpd 1297]
321 nM	O=C(c1ccccc1)N1CCN(C2CN(C(=O)c3cc4cc(C(F)(F)F)ccc4s3)C2)CC1 [Cpd 124]
204 nM	Cc1cc(-c2cccc(C(F)(F)F)c2)ccc1C(=O)N1CCN(C2CN(C(=O)c3cscn3)C2)CC1 [Cpd 1212]
447 nM	O=C(c1nccs1)N1CCN(C2CN(C(=O)c3ccccc3Nc3cccc(F)c3)C2)CC1 [Cpd 754]
167 nM	O=C(c1ccc2[nH]c(Cc3ccccc3)nc2c1)N1CC(N2CCN(C(=O)c3nccs3)CC2)C1 [Cpd 1004]
111 nM	O=C(c1ccc2[nH]c(CCc3ccccc3)nc2c1)N1CC(N2CCN(C(=O)c3nccs3)CC2)C1 [Cpd 1000]

IC50	Compound
2850 nM	O=C(c1cscn1)N1CC(N2CCN(C(=O)c3nc4cc(Cl)ccc4s3)CC2)C1 [Cpd 821]
9 nM	Cn1cc(-c2cccc(C(F)(F)F)c2)c2ccc(C(=O)N3CC(N4CCN(C(=O)c5cscn5)CC4)C3)cc21 [Cpd 1084]
222 nM	Cc1nn(-c2ccc(Cl)cc2)nc1C(=O)N1CC(N2CCN(C(=O)c3nccs3)CC2)C1 [Cpd 1218]
> 16700 nM	O=C(c1ccc(CS(=O)(=O)c2cccc(C(F)(F)F)c2)cc1)N1CC(N2CCN(C(=O)C(F)(F)F)CC2)C1 [Cpd 1498]
5290 nM	O=C(c1ccc2nc(CCc3ccccc3)[nH]c2c1)N1CCN(C2CN(C(=O)c3cscn3)C2)CC1 [Cpd 1002]
335 nM	Cc1cccc(Nc2ccccc2C(=O)N2CC(N3CCN(C(=O)c4nccs4)CC3)C2)c1C [Cpd 744]
209 nM	Cc1ccc(-n2nc(C)c(C(=O)N3CC(N4CCN(C(=O)c5nccs5)CC4)C3)n2)cc1 [Cpd 1214]
697 nM	O=C(c1nccs1)N1CCN(C2CN(C(=O)c3ccccc3Nc3cccc(C(F)(F)F)c3)C2)CC1 [Cpd 768]
1840 nM	O=C(c1ccccc1)N1CCN(C2CN(C(=O)c3ccc4c(-c5ccccc5)ncnc4c3)C2)CC1 [Cpd 604]
691 nM	Cn1c2ccccc2c2cc(C(=O)N3CC(N4CCN(C(=O)c5cscn5)CC4)C3)ccc21 [Cpd 767]
2190 nM	O=C(c1ccccc1)N1CCN(C2CN(C(=O)c3ccc(Oc4ccccc4Cl)nc3)C2)CC1 [Cpd 521]
8410 nM	Cc1c(-c2ccccc2)oc2c(C(=O)N3CCN(C4CN(C(=O)c5nccs5)C4)CC3c3ccccc3)cccc2c1=O (centres unmarked) [Cpd 854]
4230 nM	CC1CN(C2CN(C(=O)c3ccc(-c4ccccc4)cc3)C2)CCN1C(=O)c1nccs1 (centres unmarked) [Cpd 117]
4610 nM	Cc1nn(-c2ccc(F)cc2)c(C)c1C(=O)N1CC(N2CCN(C(=O)c3nccs3)CC2)C1 [Cpd 1301]
< 5 nM	Cn1cc(Cc2cccc(F)c2)c2ccc(C(=O)N3CC(N4CCN(C(=O)c5nccs5)CC4)C3)cc21 [Cpd 1033, 3-(3-Fluorobenzyl)-1-methyl-6-({3-[4-(1,3-thiazol-2-ylcarbonyl)piperazin-1-yl]azetidin-1-yl}carbonyl)-1H-indole]
8440 nM	O=C(c1cscn1)N1CCN(C2CN(C(=O)c3nc4cc(Cl)ccc4s3)C2)CC1 [Cpd 855]
> 16700 nM	O=C(c1cscn1)N1CCN(C2CN(C(=O)c3nc4ccc(F)cc4[nH]3)C2)CC1 [Cpd 1442]
2040 nM	O=C(c1ccccc1)N1CC(N2CCN(C(=O)c3ccc(-c4ccccc4)cc3)CC23CC3)C1 [Cpd 606]
